In ChEMBL document CHEMBL5465560, “Selectivity Literature for EUbOPEN Chemogenomic Library” (2024):
Blank lines part the entries; values can stand above or below the molecule they belong to.

Legend:
[1] = biological target: MAP/microtubule affinity-regulating kinase 3 (Homo sapiens) (UniProt P27448); assay: Selectivity interaction (ActivX KiNativ screen (kinase selectivity in THP-1 cell lysates)) EUB0000639a MARK3; assay type: subcellular; conditions: lysate, at 0.04 µM
[2] = biological target: T1, Mitogen-activated protein kinase kinase kinase 5 (Homo sapiens) (UniProt Q99683); assay: Selectivity interaction (Kinase panel (DSF assay)) EUB0001489b MAP3K5
T1 sequence (whole entry): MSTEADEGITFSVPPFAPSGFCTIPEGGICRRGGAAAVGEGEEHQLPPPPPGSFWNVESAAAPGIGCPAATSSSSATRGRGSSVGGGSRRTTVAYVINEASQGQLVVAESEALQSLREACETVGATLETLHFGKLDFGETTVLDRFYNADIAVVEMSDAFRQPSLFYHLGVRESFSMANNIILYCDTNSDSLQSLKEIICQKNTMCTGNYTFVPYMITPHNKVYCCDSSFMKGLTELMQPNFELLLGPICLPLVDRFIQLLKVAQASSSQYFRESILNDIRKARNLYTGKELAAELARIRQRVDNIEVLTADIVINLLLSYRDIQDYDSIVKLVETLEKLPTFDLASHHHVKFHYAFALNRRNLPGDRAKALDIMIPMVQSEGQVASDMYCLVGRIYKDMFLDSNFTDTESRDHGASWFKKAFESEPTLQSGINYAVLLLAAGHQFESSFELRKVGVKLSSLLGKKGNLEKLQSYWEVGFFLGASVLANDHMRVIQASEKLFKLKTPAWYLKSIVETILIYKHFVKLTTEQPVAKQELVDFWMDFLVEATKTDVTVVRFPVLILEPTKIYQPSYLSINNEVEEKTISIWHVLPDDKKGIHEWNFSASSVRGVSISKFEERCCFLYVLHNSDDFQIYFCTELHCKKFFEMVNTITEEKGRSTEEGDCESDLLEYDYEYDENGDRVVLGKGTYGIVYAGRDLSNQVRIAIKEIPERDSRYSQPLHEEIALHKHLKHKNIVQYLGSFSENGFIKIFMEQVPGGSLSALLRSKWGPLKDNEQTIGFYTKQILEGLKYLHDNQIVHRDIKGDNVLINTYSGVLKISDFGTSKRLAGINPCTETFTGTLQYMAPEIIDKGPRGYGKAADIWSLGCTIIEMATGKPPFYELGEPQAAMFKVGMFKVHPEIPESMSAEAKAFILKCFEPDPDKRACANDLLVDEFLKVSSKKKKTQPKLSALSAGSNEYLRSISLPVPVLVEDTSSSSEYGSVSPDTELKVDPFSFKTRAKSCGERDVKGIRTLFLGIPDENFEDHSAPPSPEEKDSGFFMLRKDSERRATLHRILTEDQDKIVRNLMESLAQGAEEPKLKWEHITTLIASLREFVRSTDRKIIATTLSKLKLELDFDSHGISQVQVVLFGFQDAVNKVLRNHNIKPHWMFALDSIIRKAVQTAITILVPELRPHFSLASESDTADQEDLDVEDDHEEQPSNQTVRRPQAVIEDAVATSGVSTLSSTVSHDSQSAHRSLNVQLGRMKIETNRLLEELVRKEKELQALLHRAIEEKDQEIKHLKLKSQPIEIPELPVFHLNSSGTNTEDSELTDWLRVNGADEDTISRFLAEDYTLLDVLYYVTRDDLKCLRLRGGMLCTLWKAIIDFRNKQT

[3] = biological target: T2, Hormonally up-regulated neu tumor-associated kinase (Homo sapiens) (UniProt P57058); assay: Selectivity interaction (KinomeScan (DiscoverX)) EUB0000655a HUNK; conditions: at 10 µM
T2 sequence (whole entry): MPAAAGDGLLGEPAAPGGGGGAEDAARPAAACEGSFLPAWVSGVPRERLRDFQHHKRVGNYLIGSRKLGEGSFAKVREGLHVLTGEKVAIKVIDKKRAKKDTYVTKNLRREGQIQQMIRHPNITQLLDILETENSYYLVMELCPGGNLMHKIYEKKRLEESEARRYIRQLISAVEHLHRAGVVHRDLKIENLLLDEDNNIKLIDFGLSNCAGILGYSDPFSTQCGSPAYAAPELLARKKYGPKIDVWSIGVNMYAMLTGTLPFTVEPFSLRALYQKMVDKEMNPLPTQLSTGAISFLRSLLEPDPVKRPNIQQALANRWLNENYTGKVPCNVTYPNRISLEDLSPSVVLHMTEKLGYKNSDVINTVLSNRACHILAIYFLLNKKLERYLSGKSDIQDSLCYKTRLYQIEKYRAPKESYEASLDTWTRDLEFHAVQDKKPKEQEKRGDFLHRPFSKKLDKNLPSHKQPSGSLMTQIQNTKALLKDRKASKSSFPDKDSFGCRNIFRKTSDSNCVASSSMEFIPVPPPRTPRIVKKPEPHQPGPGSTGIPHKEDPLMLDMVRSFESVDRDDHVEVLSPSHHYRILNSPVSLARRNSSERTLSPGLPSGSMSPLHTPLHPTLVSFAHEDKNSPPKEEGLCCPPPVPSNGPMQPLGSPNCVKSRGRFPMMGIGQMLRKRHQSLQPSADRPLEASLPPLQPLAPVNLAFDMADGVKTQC

[4] = biological target: Epithelial discoidin domain-containing receptor 1 (Homo sapiens) (UniProt Q08345); assay: Selectivity interaction (KinomeScan (DiscoverX)) EUB0001079a DDR1; conditions: at 1 µM
Chain of Epithelial discoidin domain-containing receptor 1 (Homo sapiens) (Q08345 whole entry, the tested form may be a part): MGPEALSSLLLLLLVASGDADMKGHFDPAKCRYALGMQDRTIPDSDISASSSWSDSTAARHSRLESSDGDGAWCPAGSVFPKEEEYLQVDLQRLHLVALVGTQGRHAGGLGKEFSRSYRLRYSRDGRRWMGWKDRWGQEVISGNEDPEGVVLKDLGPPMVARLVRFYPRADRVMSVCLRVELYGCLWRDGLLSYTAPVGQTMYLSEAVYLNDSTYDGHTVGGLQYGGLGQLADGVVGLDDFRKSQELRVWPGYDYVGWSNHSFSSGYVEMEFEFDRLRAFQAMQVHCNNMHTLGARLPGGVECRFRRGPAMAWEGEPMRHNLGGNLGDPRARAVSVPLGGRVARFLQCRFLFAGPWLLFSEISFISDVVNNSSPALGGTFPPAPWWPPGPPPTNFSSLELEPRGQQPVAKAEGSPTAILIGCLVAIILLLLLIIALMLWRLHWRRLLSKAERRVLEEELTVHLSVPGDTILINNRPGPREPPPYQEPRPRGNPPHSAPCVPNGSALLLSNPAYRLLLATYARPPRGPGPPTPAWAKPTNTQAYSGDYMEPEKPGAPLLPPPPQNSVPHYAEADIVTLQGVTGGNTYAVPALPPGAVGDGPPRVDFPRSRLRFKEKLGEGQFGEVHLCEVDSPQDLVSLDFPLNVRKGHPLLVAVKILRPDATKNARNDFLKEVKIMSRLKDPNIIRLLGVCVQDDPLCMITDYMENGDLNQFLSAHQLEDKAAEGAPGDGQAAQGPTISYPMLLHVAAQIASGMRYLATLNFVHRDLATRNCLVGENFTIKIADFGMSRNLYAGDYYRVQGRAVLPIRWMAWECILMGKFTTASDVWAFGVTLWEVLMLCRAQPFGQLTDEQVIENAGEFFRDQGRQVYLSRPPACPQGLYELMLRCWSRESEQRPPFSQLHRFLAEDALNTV

[5] = biological target: Serine/threonine-protein kinase SIK2 (Homo sapiens) (UniProt Q9H0K1); assay: Selectivity interaction (KinomeScan (DiscoverX)) EUB0001079a SIK2; conditions: at 1 µM
Chain of Serine/threonine-protein kinase SIK2 (Homo sapiens) (Q9H0K1 whole entry, looked up): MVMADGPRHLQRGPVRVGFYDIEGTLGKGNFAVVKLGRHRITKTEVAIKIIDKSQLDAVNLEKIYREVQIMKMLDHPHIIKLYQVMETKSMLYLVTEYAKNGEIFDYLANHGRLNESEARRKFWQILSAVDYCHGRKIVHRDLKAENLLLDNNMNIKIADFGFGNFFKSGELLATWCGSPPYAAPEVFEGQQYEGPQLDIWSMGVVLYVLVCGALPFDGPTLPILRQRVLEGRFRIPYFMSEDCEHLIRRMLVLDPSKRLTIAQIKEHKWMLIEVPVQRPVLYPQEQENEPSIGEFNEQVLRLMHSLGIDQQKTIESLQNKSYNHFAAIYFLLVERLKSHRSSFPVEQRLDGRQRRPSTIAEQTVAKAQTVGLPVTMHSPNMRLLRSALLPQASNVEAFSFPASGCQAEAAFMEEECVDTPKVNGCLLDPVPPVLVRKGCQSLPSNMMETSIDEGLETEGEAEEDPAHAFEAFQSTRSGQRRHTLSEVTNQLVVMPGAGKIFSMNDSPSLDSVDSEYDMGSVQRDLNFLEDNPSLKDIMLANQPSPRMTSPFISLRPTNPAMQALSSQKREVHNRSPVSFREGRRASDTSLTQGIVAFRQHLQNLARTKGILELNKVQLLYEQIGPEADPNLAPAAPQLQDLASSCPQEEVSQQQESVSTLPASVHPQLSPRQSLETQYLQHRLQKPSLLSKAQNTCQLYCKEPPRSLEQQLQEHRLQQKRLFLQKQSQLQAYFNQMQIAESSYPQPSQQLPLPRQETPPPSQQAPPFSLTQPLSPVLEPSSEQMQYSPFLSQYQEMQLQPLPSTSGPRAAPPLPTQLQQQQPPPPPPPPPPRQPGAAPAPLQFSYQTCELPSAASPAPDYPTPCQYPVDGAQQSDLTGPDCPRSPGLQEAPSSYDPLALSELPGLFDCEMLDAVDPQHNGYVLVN

[6] = biological target: Dual specificity protein kinase CLK4 (Homo sapiens, UniProt Q9HAZ1); assay: Selectivity interaction (KinomeScan (DiscoverX)) EUB0001550a CLK4; conditions: at 1 µM
Chain of Dual specificity protein kinase CLK4 (Q9HAZ1 whole entry, looked up): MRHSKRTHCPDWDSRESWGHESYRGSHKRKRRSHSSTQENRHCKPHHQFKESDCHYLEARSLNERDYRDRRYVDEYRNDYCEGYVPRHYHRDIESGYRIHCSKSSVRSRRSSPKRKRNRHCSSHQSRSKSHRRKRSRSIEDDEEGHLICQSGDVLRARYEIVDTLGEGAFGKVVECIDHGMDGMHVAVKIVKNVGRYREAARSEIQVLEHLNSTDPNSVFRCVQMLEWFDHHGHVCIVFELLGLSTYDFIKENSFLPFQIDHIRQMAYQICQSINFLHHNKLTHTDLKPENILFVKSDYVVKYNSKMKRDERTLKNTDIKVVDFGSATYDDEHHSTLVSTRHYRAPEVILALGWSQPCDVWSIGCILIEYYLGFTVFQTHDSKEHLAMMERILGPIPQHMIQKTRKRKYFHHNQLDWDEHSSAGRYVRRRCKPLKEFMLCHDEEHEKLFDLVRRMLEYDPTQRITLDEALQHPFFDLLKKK

[7] = biological target: T3, Interleukin-1 receptor-associated kinase 3 (Homo sapiens) (UniProt Q9Y616); assay: Selectivity interaction (KinomeScan (DiscoverX)) EUB0000618a IRAK3; conditions: at 10 µM
T3 sequence (whole entry): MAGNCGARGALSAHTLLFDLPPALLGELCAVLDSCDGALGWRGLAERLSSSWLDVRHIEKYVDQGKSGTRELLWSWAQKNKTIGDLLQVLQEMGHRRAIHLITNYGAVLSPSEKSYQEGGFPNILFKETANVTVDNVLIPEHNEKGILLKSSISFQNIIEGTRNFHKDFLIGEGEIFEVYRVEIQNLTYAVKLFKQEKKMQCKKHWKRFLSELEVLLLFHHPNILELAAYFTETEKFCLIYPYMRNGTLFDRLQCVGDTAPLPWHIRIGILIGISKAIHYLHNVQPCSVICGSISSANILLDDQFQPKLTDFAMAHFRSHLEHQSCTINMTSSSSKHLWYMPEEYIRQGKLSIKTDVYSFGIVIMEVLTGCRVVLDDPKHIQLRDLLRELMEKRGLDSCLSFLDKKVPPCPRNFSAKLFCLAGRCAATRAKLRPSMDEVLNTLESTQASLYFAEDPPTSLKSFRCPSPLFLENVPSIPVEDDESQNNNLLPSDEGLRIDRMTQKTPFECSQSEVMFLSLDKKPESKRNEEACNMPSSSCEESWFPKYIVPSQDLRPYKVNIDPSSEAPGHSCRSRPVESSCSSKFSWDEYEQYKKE

Chain of MAP/microtubule affinity-regulating kinase 3 (Homo sapiens) (P27448 whole entry, looked up): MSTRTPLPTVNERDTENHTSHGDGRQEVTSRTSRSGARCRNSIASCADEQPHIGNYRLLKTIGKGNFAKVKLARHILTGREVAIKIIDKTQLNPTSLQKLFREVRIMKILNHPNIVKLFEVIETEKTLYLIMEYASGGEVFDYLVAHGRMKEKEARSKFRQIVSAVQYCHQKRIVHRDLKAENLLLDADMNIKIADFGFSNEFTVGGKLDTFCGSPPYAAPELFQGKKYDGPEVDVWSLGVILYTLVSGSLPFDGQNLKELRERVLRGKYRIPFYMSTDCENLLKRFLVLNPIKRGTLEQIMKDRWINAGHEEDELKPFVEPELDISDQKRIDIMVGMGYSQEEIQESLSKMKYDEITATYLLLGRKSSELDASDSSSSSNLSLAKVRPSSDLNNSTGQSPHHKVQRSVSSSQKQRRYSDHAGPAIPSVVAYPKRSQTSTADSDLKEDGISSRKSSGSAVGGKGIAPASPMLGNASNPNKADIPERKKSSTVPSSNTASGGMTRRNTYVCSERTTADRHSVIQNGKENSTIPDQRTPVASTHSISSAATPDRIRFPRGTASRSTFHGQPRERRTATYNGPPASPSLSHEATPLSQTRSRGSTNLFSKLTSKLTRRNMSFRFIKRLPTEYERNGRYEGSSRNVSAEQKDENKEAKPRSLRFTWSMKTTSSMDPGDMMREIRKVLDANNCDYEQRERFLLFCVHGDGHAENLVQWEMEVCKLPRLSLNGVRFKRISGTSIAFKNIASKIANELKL

SMILES: CN(C)CCOc1ccc(-c2nc(-c3ccncc3)c(-c3ccc4c(c3)CC/C4=N\O)[nH]2)cc1
- % of control [3]: 84%

SMILES: Nc1cnc(N2CCc3cc(S(=O)(=O)Nc4c(F)cc(Cl)cc4F)cc(N4CCCC4=O)c32)nc1 [TP-020n]
- % of control [4]: 100%
- % of control [5]: 100%

SMILES: O[C@H]1CC[C@H](Nc2ncc3nc(Nc4c(F)cc(F)cc4F)n([C@H]4CCOC4)c3n2)CC1
- % of control [7]: 100%

Now from value to molecule:

- % of inhibition [1]: -13.3%
SMILES: CC[C@@H]1[C@H](F)C(=O)N[C@@H]1COc1nccc2cc(C(N)=O)c(OC)cc12 [ZIMLOVISERTIB]

- dTM [2]: 3.2 K
SMILES: CN1CCN(C(=O)c2ccc3cc2OCCOCCNc2ccn4ncc-3c4n2)CC1

- % of control [6]: 34%
SMILES: CN(C)CC#Cc1ccc2[nH]c3c(c2c1)-c1nc(N)ncc1CCC3
